Data reported in patent publication US8460669B2, “Compositions and methods for identifying response targets and treating flavivirus infection responses” (Academia Sinica, priority 2005, dated 2013).
Entries after “also recorded” stand apart in the source; their conditions may differ.

T1: Dectin-1.Fc (Homo sapiens, UniProt Q9BXN2)
T1 construct: The extracellular domains of lectin receptors, TREMs and TLTs were cloned by the reverse-transcriptase polymerase chain reaction (RT-PCR); made in house; host or cells: 293-F (FreeStyle 293) cells
T1 sequence (Q9BXN2 66-247 limits assumed): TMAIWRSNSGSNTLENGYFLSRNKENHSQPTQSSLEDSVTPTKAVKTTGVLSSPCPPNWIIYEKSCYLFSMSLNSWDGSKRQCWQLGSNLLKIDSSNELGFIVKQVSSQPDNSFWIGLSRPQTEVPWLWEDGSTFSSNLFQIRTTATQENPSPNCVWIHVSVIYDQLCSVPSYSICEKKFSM

T2: KCR.Fc (Mus musculus, UniProt P70194)
T2 construct: the extracellular domains of DVLR1/CLEC5A (MDL-1), Dectin-1, KCR, and DC-SIGN (as a positive control) were fused to the Fc portion of human IgG1; made in house; host or cells: 293-F (FreeStyle 293) cells
T2 sequence (P70194 70-548 limits assumed): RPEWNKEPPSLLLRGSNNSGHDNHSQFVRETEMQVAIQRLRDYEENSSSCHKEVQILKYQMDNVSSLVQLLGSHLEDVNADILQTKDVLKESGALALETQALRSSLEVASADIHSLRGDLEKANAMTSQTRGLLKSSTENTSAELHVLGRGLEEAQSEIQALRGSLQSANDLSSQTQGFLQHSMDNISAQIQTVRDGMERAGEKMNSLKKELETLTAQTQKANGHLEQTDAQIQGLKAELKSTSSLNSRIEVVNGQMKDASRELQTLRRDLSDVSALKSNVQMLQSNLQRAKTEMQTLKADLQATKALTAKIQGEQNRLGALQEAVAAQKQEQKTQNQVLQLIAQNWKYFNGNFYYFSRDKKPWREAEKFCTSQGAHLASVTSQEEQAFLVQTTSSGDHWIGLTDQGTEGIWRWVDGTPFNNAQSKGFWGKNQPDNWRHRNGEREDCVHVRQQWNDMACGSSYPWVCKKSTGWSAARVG

T3: DC-SIGNR.Fc (Homo sapiens, UniProt Q9H2X3)
T3 construct: The extracellular domains of lectin receptors, TREMs and TLTs were cloned by the reverse-transcriptase polymerase chain reaction (RT-PCR); made in house; host or cells: 293-F (FreeStyle 293) cells
T3 sequence (Q9H2X3 71-399): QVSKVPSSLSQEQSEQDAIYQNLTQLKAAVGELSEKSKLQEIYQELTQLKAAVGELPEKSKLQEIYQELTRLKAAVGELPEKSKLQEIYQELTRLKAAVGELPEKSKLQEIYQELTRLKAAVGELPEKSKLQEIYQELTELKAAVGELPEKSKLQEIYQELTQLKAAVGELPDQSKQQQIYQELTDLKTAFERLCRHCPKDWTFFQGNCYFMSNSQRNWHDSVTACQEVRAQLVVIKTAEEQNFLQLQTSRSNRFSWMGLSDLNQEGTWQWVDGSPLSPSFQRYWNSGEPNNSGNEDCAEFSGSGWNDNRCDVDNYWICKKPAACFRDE

T4: TLT-2.Fc (Homo sapiens, UniProt Q5T2D2)
T4 construct: The extracellular domains of lectin receptors, TREMs and TLTs were cloned by the reverse-transcriptase polymerase chain reaction (RT-PCR); made in house; host or cells: 293-F (FreeStyle 293) cells
T4 sequence (Q5T2D2 19-268 limits assumed): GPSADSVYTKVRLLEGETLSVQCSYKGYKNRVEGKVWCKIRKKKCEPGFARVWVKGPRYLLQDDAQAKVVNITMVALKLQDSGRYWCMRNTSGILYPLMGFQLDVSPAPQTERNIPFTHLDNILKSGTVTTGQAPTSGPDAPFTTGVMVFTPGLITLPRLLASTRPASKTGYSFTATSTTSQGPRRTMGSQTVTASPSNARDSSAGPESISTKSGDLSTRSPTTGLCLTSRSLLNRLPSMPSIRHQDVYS

B1: Fc.DC-SIGN: DC-SIGN (CLEC4L) extracellular domain fused to human IgG1 Fc (protein)
chain: QVSKVPSSISQEQSRQDAIYQNLTQLKAAVGELSEKSKLQEIYQELTQLKAAVGELPEKSKLQEIYQELTRLKAAVGELPEKSKLQEIYQELTWLKAAVGELPEKSKMQEIYQELTRLKAAVGELPEKSKQQEIYQELTRLKAAVGELPEKSKQQEIYQELTRLKAAVGELPEKSKQQEIYQELTQLKAAVERLCHPCPWEWTFFQGNCYFMSNSQRNWHDSITACKEVGAQLVVIKSAEEQNFLQLQSSRSNRFTWMGLSDLNQEGTWQWVDGSPLLPSFKQYWNRGEPNNVGEEDCAEFSGNGWNDDKCNLAKFWICKKSAASCSRDEEQFLSPAPATPNPPPA
modifications: left off: a dimerising Fc or GST

Tests used:
[1] = Enzyme linked immunoassay of receptor.Fc fusions on immobilized GLPS-F3; type: binding, Ganoderma lucidum; settings: GLPS-F3 100 ng/well; receptor.Fc 1 μg/ml
Method: The interactions of polysaccharides with receptor.Fc fusion proteins was further investigated by performing an enzyme-linked immunoassay, which was based on immobilizing GLPS-F3 through both hydrophilic and hydrophobic forces onto microtiter plates (polysytrene). In this format, the number of different receptor.Fc fusions for profiling was increased in comparison to Example 7. To optimize the quantity of GLPS-F3 for immobilization, various amounts (3-1000 ng/well, diluted in 100 mM Tris buffer, pH9.5) of biotinylated-GLPS-F3 (Biotin-GLPS-F3) were coated onto MaxiSorp StarWell microtiter plates (50 μL/well; Nunc). The plates were incubated overnight at 4° C., and then the wells were washed twice with TBST, followed by blocking with 200 μL blocking buffer (2% BSA/TBST) for 1 hour at room temperature. Peroxidase-conjugated avidin (1:5000 dilution, Vector Laboratories) and TMB (tetramethylbenzidine) substrate was then used for detection of immobilized biotinylated GLPS-F3.
The interaction between GLPS-F3 and receptor.Fc was then tested. […] Wells were incubated with 100 μL TMB substrate for 15 min after TBST washing and read at 450 nm in a Fusion plate reader (Perkin Elmer). […]

Dengue virus [2] = assay: ELISA of receptor.Fc interaction with Dengue virus; type: binding; settings: for interaction of receptor.Fc with Dengue virus (ELISA): receptor.Fc 1 μg, DV 5×10^6
Method: One μg of each receptor.Fc fusion protein was coated onto microtiter plates overnight at 4° C. DV (5×10^6 particles) of strain 16681 (a DEN2 strain) in binding buffer (1% BSA, 2 mM CaCl2, 2 mM MgCl2, 50 mM Tris-HCl pH 7.5, 150 mM NaCl) was then added to the plates and the plates were incubated for 2 hours. After washing non-bound virus, a biotinylated anti-DEN2 envelope protein antibody (Wu et al., J Virol, 2002. 76(8): p. 3596-604) was applied to bind to the virus for 1 hour. Diluted horseradish peroxidase-conjugated streptavidin was then added to the plates, followed by a 1 hour incubation. TMB substrate was then added and the plates were read using an ELISA reader at OD450 nm.
The microtiter plate assay was repeated in the presence of EDTA (10 mM) to chelate Ca^++ cations.
The microtiter plate assay was also repeated for DVLR1/CLEC5A.Fc fusion protein with DV particles (5×10^6) that had been 1) preincubated with 500 U of the glycosidase PNGaseF (New England Biolabs, Inc.) overnight at 37° C.; or 2) treated with dithiothreitol (DTTI) (0.1M); or 3) incubated at 95° C. for 5 minutes; or 4) UV irradiated for 5 minutes. The results are shown in FIG. 8D (asterisks indicate where the binding affinity of DVLR1/CLEC5A.Fc fusion protein is altered by modification of the virus relative to non-treated virus; ** p<0.01, *** p<0.001, Student's t test). […]

Dectin-1.Fc = target: T1, Dectin-1.Fc; assay: Immunosorbent dot binding assay with Dectin-1.Fc; settings: competitor 0.1 μg-1000 μg, or EDTA 10 mM in TBST
KCR.Fc = target: T2, KCR.Fc; assay: Immunosorbent dot binding assay with KCR.Fc; settings: EDTA 10 mM in TBST
DC-SIGNR.Fc = target: T3, DC-SIGNR.Fc; assay: Immunosorbent dot binding assay with DC-SIGNR.Fc; settings: EDTA 10 mM in TBST
TLT-2.Fc = target: T4, TLT-2.Fc; assay: Immunosorbent dot binding assay with TLT-2.Fc; settings: EDTA 10 mM in TBST
Dengue virus [3] = assay: Immunoprecipitation of Dengue virus with receptor.Fc; type: binding; settings: receptor.Fc 5 μg; DV 5×10^6; listed as DC-SIGN.Fc
Method: The results are depicted in FIG. 8A (** indicates p<0.01, *** indicates p<0.001 (Student's t test)). […] Specifically, 5×10^6 Dengue virus particles were incubated with 5 μg of each protein, and then Protein A beads were added. The resulting immunocomplexes were washed, separated by SDS-PAGE, and transferred onto nitrocellulose membrane. The membrane was then probed with biotinylated anti-DEN2 envelope protein antibody and developed with horseradish peroxidase-conjugated streptavidin.
In FIG. 16b, complexes of DV (5×10^6 PFU) with receptor.Fc (5 μg) were immunoprecipitated and detected on westerns with mAb to DV envelope (E) protein. […] FIGS. 16d and 16e show sugar competition assays wherein both DC-SIGN (CLEC4L) and DVLR1/CLEC5A increase DV binding to human 293T cells (FIG. 16d), while addition of sugars inhibits biotinylated DV binding to DC-SIGN- (left panel) or DLVR1/CLEC5A- (right panel) transfected 293T cells in a dose-dependent manner as determined by flow cytometry (FIG. 16e). According to FIG. 16e, MFI represents mean fluorescence intensity. Units (U) for monosaccharide (mannose and fucose) and polysaccharide (mannan) are mM and mg/ml, respectively. […] Data are expressed as the mean±s.d. of three independent experiments. Two-tailed, Student's t-tests were performed. […]

Molecule	binding ability to GLPS-F3 [1]	interaction of receptor.Fc with Dengue virus (ELISA) (Dengue virus [2])	inhibition of the interaction between Dectin-1.Fc and F3 (Dectin-1.Fc)	inhibition of the interaction of F3 with KCR.Fc (KCR.Fc)	inhibition of the interaction of F3 with DC-SIGNR.Fc (DC-SIGNR.Fc)	inhibition of the interaction of F3 with TLT2.Fc (TLT-2.Fc)	binding to DV pretreated with heat or dithiothreitol (Dengue virus [2]; 95° C. 5 min or DTT 0.1 M)	Ca^++ dependence of binding to Dengue virus (Dengue virus [2]; EDTA 10 mM)	interaction of receptor.Fc with Dengue virus (ELISA) (Dengue virus [2]; listed as DC-SIGN.Fc)	immunoprecipitation of Dengue virus (E protein detected) (Dengue virus [3])
Fc.DC-SIGNR: DC-SIGNR (CLEC4M) receptor.Fc fusion protein	minimal binding ability	able to capture DV2	–	–	–	–	–	–	–	–
O=C(O)CN(CCN(CC(=O)O)CC(=O)O)CC(=O)O [EDTA, Ethylene Diamine Tetra Acetic Acid]	–	–	not	completely oabolished	completely oabolished	not	–	–	–	–
B1	–	binds	–	–	–	–	not	Ca^++ dependent; also recorded: Ca^++-dependent	able to capture DV2	able to immunoprecipitate DV; also recorded: detected
